Laboratory results from EP1430933A2, “Cosmetic and pharmaceutical compositions comprising steroid sulfatase inhibitors and their use for the reduction of hair loss” (Henkel Kommanditgesellschaft auf Aktien, priority 2002, dated 2004).

Target: T1, Arylsulfatase (EC 3.1.6.1) (Klebsiella aerogenes, UniProt P20713)
T1 construct: purchased Sigma S-1629
T1 sequence (P20713 21-464): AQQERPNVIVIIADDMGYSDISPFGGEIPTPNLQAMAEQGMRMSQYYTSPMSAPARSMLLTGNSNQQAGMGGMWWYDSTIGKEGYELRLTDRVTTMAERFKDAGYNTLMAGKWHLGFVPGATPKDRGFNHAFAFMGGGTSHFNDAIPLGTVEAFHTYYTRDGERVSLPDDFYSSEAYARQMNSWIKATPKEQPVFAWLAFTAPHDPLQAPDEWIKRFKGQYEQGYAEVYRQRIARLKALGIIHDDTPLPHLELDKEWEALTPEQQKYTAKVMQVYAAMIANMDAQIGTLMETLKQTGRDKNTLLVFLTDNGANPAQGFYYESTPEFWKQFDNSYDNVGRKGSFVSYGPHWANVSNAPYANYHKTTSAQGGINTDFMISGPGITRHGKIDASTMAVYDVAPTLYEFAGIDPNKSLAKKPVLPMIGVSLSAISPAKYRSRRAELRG
Assay: Arylsulfatase enzyme test (Sigma sulfatase enzyme assay S-1629; p-nitrophenol formation from pNPS, 420 nm)
Assay type: biochemical
Conditions: pH 7,1, 37°C, 8 mM pNPS
Text: Überprüfung der inhibitorischen Wirkung der Steroidsulfatase-Inhibitoren (in vitro)
Da die Sulfatase des Haarfollikels nicht zur Verfügung stand, diente eine handelsübliche Arylsulfatase (EC 3.1.6.1) aus Aerobacter aerogenes als Modellenzym, um die Hemmwirkung der erfindungsgemäß verwendeten Inhibitoren zu testen. Die Tests wurden mit dem Sulfatase-Enzymassay Product No. S-1629 von Sigma gemäß den Angaben im Sigma Quality Control Test Procedure-Datenblatt durchgeführt. Als Referenz-Inhibitoren dienten Ascorbinsäure und ATP.
Zur Auswertung wurde die Arylsulfatase-katalysierte Bildung von p-Nitrophenol aus dem Substrat p-Nitrophenylsulfat (pNPS) spektrophotometrisch (λ = 420 nm) verfolgt. Die Reaktionslösungen von 1000 µl, die auf eine Reaktionstemperatur von 37°C temperiert wurden, enthielten 187 mM Tris/HCl (pH 7,1), 8 mM pNPS und eine Startkonzentration von 0,05 U/ml Arylsulfatase. Die Einheit U der Enzymaktivität wurde so definiert, dass 1 U Sulfatase 1,0 µmol pNPS pro Minute bei pH 7,1 und 37°C hydrolysiert. Die Testdurchführung ist auch offenbart bei H.R. Fowler und D. H. Rammler, Biochemistry 3, 230, 1964. Die Reaktion wurde durch Zugabe des Enzyms gestartet und der Anstieg der Absorption bei λ = 420 nm über 5 Minuten verfolgt. Der lineare Anstieg der Absorption (A) pro Zeiteinheit (t) ist hierbei ein Maß für die Aktivität des Enzyms (ΔA/Δt). Die Aktivität des Enzyms in Abwesenheit eines Inhibitors, (ΔA1/Δt1 ), wurde als Referenz gleich 100% gesetzt. Unter analogen Bedingungen wurden die Aktivitäten in Gegenwart eines Inhibitors (ΔA2/Δt2) bestimmt. Die Hemmwirkung des Inhibitors bzw. die Minderung der Enzymaktivität wurde dann berechnet gemäß der Formel 100% - (ΔA2/Δt2 )/( ΔA1/Δt1 )%.

Aluminiumchlorohydrat [Aluminiumchlorohydrat (ACH)]
Hemmwirkung (ACH-Lösung Locron® L 0,01 % (v/v)): Keine Hemmung meßbar | Hemmwirkung (ACH-Lösung Locron® L 0,1 % (v/v)): 6% | Hemmwirkung (ACH-Lösung Locron® L 0,5 % (v/v)): 27% | Hemmwirkung (ACH-Lösung Locron® L 1 % (v/v)): 52%
